We go through 2 molecules from patent publication US20110217391A1, “MATRIX METALLOPROTEASE (MMP) PRODUCTION INHIBITOR” (FUJIFILM CORPORATION, priority 2010, published 2011).

Read-outs that look alike come from different tables or passages of the source.

Data set [1] deals with Pellicle-derived human normal keratinocytes. Particulars: 48 h. How it is done:
Pellicle-derived human normal keratinocytes were inoculated into a 10% (v/v) FBS-containing MEM medium on a 12-well culture plate, at a cell density of 1.9×10^4 cells/well. Thereafter, the cells were pre-cultured for 24 hours according to an ordinary method. […] After completion of the culture, the cells were washed with PBS, and a survival test was then carried out according to a common method using MTT. Specifically, a 0.5 mg/mL MTT solution was added to the culture plate, resulting in a concentration of 500 μL/well, and it was then incubated in an incubator for 2 hours. Thereafter, 1.5 mL of dimethyl sulfoxide was added thereto, and the absorbance at a wavelength of 570 nm was then measured. The obtained absorbance was used as an indicator for the number of surviving cells. The number of surviving cells obtained in the case of not adding an evaluation sample was defined as 100, and the cell survival percentage (%) obtained in the case of adding an evaluation sample was obtained.

In a further data set the test system is matrix metalloprotease 9. Kind of data set: Suppression of production of matrix metalloprotease 9 on epidermis, TGF β1 or β2 induction, ELISA of culture supernatant. The note with it: keratinocytes, TGF β1 or β2 5 ng/ml, 0.45 μg/ml, 48 hours. The data set is classed as cell-based, human. How it is done:
Thereafter, the medium was exchanged with a test medium which had been prepared by adding TGF (transforming growth factor) β1 or β2 which is known to be released as a matrix metalloprotease 9 production promoting factor from cells upon UV irradiation, to a 1% (v/v) FBS-containing MEM medium to a final concentration of 5 ng/ml, so as to produce a matrix metalloprotease 9 induction test system. […] Specifically, the concentration of a grape extract was set at 100 μg/ml, and the concentration of a Salacia plant extract (the present invention) was set at 100 μg/ml. These test substances were each added to a test medium, and the medium was then exchanged with a fresh one. Thereafter, culture was carried out for 48 hours. After completion of the culture, a culture supernatant was recovered. The recovered supernatant was assayed according to the ELISA method with Matrix Metalloprotease-9, Human, Assay (GE Healthcare, RPN2614). Measurement was carried out in accordance with protocols provided by the distributer, and the value at a wavelength of 630 nm was measured using a wavelength-tunable microplate reader, Sunrise Rainbow Thermo (SUNRISE) and was then quantified. […]
(In general: An ELISA detects its analyte on a solid surface through an enzyme-linked reagent.)

In turn, `CC1=C(/C=C/C(C)=C/C=C/C(C)=C/C(=O)O)C(C)(C)CCC1` [retinoic acid] returned a cell survival percentage in data set [1] (0.15 μg/ml) of at least 70%.

Take `C[C@H]1[C@H](C)CC[C@]2(C(=O)O)CC[C@]3(C)C(=CC[C@@H]4[C@@]5(C)CC[C@H](O)C(C)(C)[C@@H]5CC[C@]43C)[C@H]12` [ursolic acid]: the cell survival percentage in data set [1] (0.45 μg/ml) is at least 70%. The “effect of suppressing the production of matrix metalloprotease 9 (MMP9 protein expression level)” value with matrix metalloprotease 9 is “did not have the effect of suppressing the production of matrix metalloprotease 9”.
